Values quoted from earlier work in patent EP3763715A1, “HARRINGTONINES SALTS, IN PARTICULAR RETINOATES, THEIR PROCESS OF PREPARATION AND THEIR USES IN THE TREATMENT OF LEUKEMIAS, CANCERS, AUTOIMMUNE, SKIN, ALZHEIMER'S AND INFLAMMATORY BOWEL DISEASES AND VIRAL INFECTIONS, COMBINED WITH MYELOPOIESIS STIMULATING AGENTS” (Robin, Jean-Pierre, priority 2019, dated 2021).

Test system: multidrug-resistant cell lines
Details: greater than that of HHT; cited from earlier work

Which antileukemic activity does the source give for `C/C=C/C=C/COC(=O)C[C@](O)(CCCC(C)(C)O)C(=O)O[C@@H]1C(OC)=C[C@]23CCCN2CCc2cc4c(cc2[C@H]13)OCO4` [OP5215] here?
The antileukemic activity was 5 times.
